A value given as a limit tells only on which side of the number the result lay.

Twelve compounds from ChEMBL document CHEMBL4414593, “Prenylated Acetophloroglucinol Dimers from Acronychia trifoliolata: Structure Elucidation and Total Synthesis” (J Nat Prod, 2019) can be followed below.

One test concerns A549. Kind of test: Antiproliferative activity against human A549 cells assessed as reduction in cell viability after 72 hrs by SRB assay. It counts as functional, cell-based. The conditions noted are these: A549, 72 h.
The subject of another test is KB. Kind of test: Antiproliferative activity against human KB cells assessed as reduction in cell viability after 72 hrs by SRB assay. It counts as functional, cell-based. (In SRB staining, fixed cells bind dye roughly in proportion to their protein.)
The subject of another test is MDA-MB-231. In words: Antiproliferative activity against triple-negative human MDA-MB-231 cells assessed as reduction in cell viability after 72 hrs by SRB assay. The class given is functional, cell-based. The conditions noted are these: MDA-MB-231, 72 h.
Test [1] is described as follows: Antiproliferative activity against P-gp overexpressing human KBVIN cells assessed as reduction in cell viability after 72 hrs by SRB assay. It counts as functional.

In the case of `COc1c(CC=C(C)C)c(O)c(Cc2c(O)c(CC=C(C)C)c(OC)c(C(C)=O)c2O)c(O)c1C(C)=O`, the IC50 with A549 was 6.4 µM; in the test with KB, 5.5 µM; with MDA-MB-231, 5.9 µM; in test [1] it was 5.5 µM.

Consider `COc1c(CC=C(C)C)c(O)c(C(CC(C)C)c2c(O)c(CC=C(C)C)c(OC)c(C(C)=O)c2O)c(O)c1C(C)=O`, for which the IC50 in the test with A549 was above 10 µM; with KB, 7.6 µM; with MDA-MB-231 it was above 10 µM; in test [1], 8.4 µM.

For `COc1c(CC=C(C)C)c(O)c(C(CC(C)C)c2c(O)cc(O)c(C(C)=O)c2O)c(O)c1C(C)=O` (stereo not drawn), the IC50 was determined as 4.9 µM in the test on A549, 5.2 µM in the test with KB, 5.8 µM with MDA-MB-231 and 5 µM in test [1].

As for `COc1c(CC=C(C)C)c(O)c(Cc2c(O)cc(O)c(C(C)=O)c2O)c(O)c1C(C)=O`, the IC50 in the test on A549 was 5.6 µM; in the test on KB, 5.2 µM; with MDA-MB-231 it was 6.9 µM; in test [1], 5.1 µM.

With `COc1c(CC=C(C)C)c(O)c(C(CC(C)C)c2c(O)c3c(c(C(C)=O)c2O)OC(C(C)(C)O)C3)c(O)c1C(C)=O` (racemic), the IC50 (with A549; in the test with KB; with MDA-MB-231; in test [1]) was above 10 µM in each case.

For `COc1c(CC=C(C)C)c(O)c(C(CC(C)C)c2c(O)c(C(C)=O)c(O)c3c2OC(C)(C)C(O)C3)c(O)c1C(C)=O` (racemic), the IC50 (in the test on A549; with KB; with MDA-MB-231; in test [1]) was above 10 µM throughout.

In the case of `COc1c(CC=C(C)C)c(O)c(C(CC(C)C)c2c(O)c3c(c(C(C)=O)c2O)OC(C)(C)C(O)C3)c(O)c1C(C)=O` (racemic), the IC50 (with A549; in the test with KB; in the test with MDA-MB-231; in test [1]) was above 10 µM in each case.

With `COc1c(CC=C(C)C)c(O)c(C(CC(C)C)c2c(O)c3c(c(C(C)=O)c2O)OC(C)(C)C=C3)c(O)c1C(C)=O` (racemic), the IC50 was 5.9 µM in the test with A549, 4.9 µM in the test on KB, 5.4 µM with MDA-MB-231 and 4.3 µM in test [1].

As to `COc1c(CC=C(C)C)c(O)c(C(CC(C)C)c2c(O)c(C=O)c(O)c(C(C)=O)c2O)c(O)c1C(C)=O` (racemic), the IC50 (in the test with A549; in the test on KB; in the test on MDA-MB-231; in test [1]) was above 10 µM throughout.

On to `COc1c(CC=C(C)C)c(O)c(C(CC(C)C)c2c(O)c(CC=C(C)C)c(O)c(C(C)=O)c2O)c(O)c1C(C)=O` (racemic), for which the IC50 in the test with A549 came to 6.1 µM; in the test with KB it was 4.9 µM; in the test with MDA-MB-231, 6.4 µM; in test [1], 4.4 µM.

In the case of `C=C(C)C(O)Cc1c(O)c(C(C)=O)c(O)c(C(CC(C)C)c2c(O)c(CC=C(C)C)c(OC)c(C(C)=O)c2O)c1O` (racemic) [ACROVESTENOL], the IC50 was above 10 µM in the test with A549, 6 µM in the test with KB, 10 µM in the test with MDA-MB-231 and 6.5 µM in test [1].

With `CC(=O)O[C@H]1C(=O)[C@@]2(C)[C@H]([C@H](OC(=O)c3ccccc3)[C@]3(O)C[C@H](OC(=O)[C@H](O)[C@@H](NC(=O)c4ccccc4)c4ccccc4)C(C)=C1C3(C)C)[C@]1(OC(C)=O)CO[C@@H]1C[C@@H]2O` [PACLITAXEL], the IC50 with A549 came to 0.0063 µM; in the test with KB, 0.0074 µM; with MDA-MB-231, 0.0107 µM; in test [1], 4.53 µM.

The term IC50 denotes the concentration that inhibits the measured activity by half.
